Here are results for six compounds from patent publication US20130244875A1, “METHODS AND COMPOSITIONS FOR IMPROVING PLANT HEALTH” (priority 2006, published 2013).

Values joined by “and” are separate entries in the source; they are usually repeats but may differ in a detail not shown here. Equal values may be shown once. Read-outs that look alike come from different tables or passages of the source.

Series [1] deals with DMOxRR2Y soybean stack. The experiment in a line: 2,4-D postemergence injury on DMOxRR2Y soybean. The series is classed as in vivo. The conditions noted are these: V3, 3, 30, 60, 120 and 280 g ae/ha, all rates, 20 days after treatment. From the text: A rate titration of 2,4-D (2,4-D amine, Helena Chemical Co., Memphis, Tenn.) was applied as postemergence (POST) treatment at V3 growth state of breeding stack of DMO soybean and RR2Y (RR2Y is MON89788 event, U.S. application Ser. No. 11/441,914) transgenic soybean. 2,4-D was applied as a postemergence (POST) treatment (V3) at 5 application rates on DMOxRR2Y soybean stack and compared for total crop injury across all application rates. The POST herbicide application rates used for this trial were 3 g ae/ha (acid equivalent/hectare), 30 g ae/ha, 60 g ae/ha, 120 g ae/ha and 280 g ae/ha of 2,4-D. The treated plants were rated for 2,4-D symptoms 20 days after treatment.

In series [2] the test system is Verticillium (isolate DPL). The experiment in a line: Verticillium wilt protection in cotton, isolate DPL. The conditions noted are these: cotton ST6611, DCSA 1 lb/A, glyphosate 0.75 lb/A, 24 hours before inoculation. It is filed as in vivo, Verticillium dahliae. The text has this:
(§1) DCSA was unexpectedly found to provide protection to cotton plants against Verticillium dahliae, causal agent of cotton wilt disease (Table 6). Cotton plants of the variety ST6611, BOLLGARD 2, ROUNDUP READY FLEX, were inoculated with a moderate isolate (DPL) or a virulent isolate (King) of Verticillium by a seedling dipping method. Seedlings at the first true leaf stage were taken out from the pots, one inch of roots were cut off, seedlings were dipped in a spore slurry for one minute, and then transplanted back in the pots. These strains were isolated and provided by Dr. Terry Wheeler (Texas A&M University, TX USA). DCSA was applied at the rate of 1 lb/A and glyphosate (ROUNDUP WEATHERMAX, Monsanto Company, St. Louis, Mo.) at the rate of 0.75 lb/A 24 hours before inoculation. Protection against Verticillium was measured on a disease severity scale of 1-9:1 being healthy and 9 being dead because of disease, and also was measured as the number of plants that survived out of 10 inoculated plants.

For series [3], the system named is Verticillium (isolate King). In words: Verticillium wilt protection in cotton, isolate King. The series is classed as in vivo, Verticillium dahliae. Particulars: cotton ST6611, DCSA 1 lb/A, glyphosate 0.75 lb/A, 24 hours before inoculation.
Text: as §1

Series [4] relates to haploid seeds of corn genotype 01DKD2. The experiment in a line: Haploid corn seed pretreatment before colchicine doubling. It is filed as in vivo. Particulars: seeds imbibed 24 hours before 0.0625% colchicine; for Doubling efficiency: water 5; for 10 inch pot survival: water 53; for Percent Pollination: water 81; for Percent germination: water 90. The method, then: The use of these chemicals during the doubling process is toxic and stressful to the treated plant or seed. […] To determine quantify the effect of acetyl salicylic acid (ASA) and salicylic acid (SA) on plant health of haploid plants subjected to colchicine treatments, haploid seeds of corn genotype 01DKD2 were treated with 100-500 microMolar (μM) of DCSA, ASA, or SA or combinations thereof by imbibing the seeds in a solution of the compound for 24 hours before colchicine treatment of the seeds. A solution of 0.0625% colchicine (Sigma Aldrich, St. Louis, Mo. Cat#C3915) and 1.5% DMSO (Sigma Aldrich, St. Louis, Mo. Cat#D8779) was used to treat the seeds and the seeds incubated in the solution at 25° C. for 5 days in the dark. The germination rate, survival rate of the treated plants, fertility, and doubling rate were measured.

For series [5], the system named is soybean plants. In words: Copper injury on soybeans. It is filed as in vivo. The conditions noted are these: 1000 ppm copper sulfate foliar spray alone; soybean V1-2; 5 days after treatment. From the text: Plants are sensitive to heavy metal toxicity. Heavy metals are present in the environment or sometimes applied to plants for pest control. Symptoms of plant injury following treatment with a heavy metal compound, for example, a compound containing copper, are necrotic leaf spotting and flecking with more severe injury resulting in larger reddish brown spots, […] necrosis and/or necrotic puckered leaves.

In series [6] the test system is soybean plants. The conditions noted are these: for % injury: N3001 non-transgenic soybean, 4 DAT, ANOVA mean; for % injury at 5 DAT Paraquat alone control 100 g ae/ha: paraquat alone 100 g ae/ha. On the procedure:
For this example, the plants were grown as described in the above example. Transgenic and non transgenic soybean plants carrying the DMO gene in their genome were either treated with Paraquat (Gramoxone®; Syngenta) to create oxidative stress or with dicamba followed by Paraquat at V3 stage. The dicamba rate was 1 lb/Acre or 1120 g ae/ha. […] Plants were then evaluated for paraquat injury by visually assessing injury at a particular day after treatment (DAT) for injury on a scale of 0 to 100 percent relative to untreated control plants, with zero representing “no” injury and 100% representing “complete” injury or death. Data were collected and analyzed using suitable statistical methods.
In another experiment, the effect of externally applied DCSA was tested for its benefit in protecting soybean plants from oxidative stress injury caused by Paraquat. Different amounts of DCSA were applied 24 hrs before applying Paraquat to test any correlation between the amount of DCSA applied and the extent of protection obtained from oxidative stress measured in terms of reduction in % injury as described above. Different levels of dicamba were also applied separately to test the same hypothesis.

The test system of series [7] is cotton plants. The experiment in a line: Paraquat (Gramoxone) oxidative stress injury in cotton. It is filed as in vivo. Particulars: 2 DAT, DCSA (if given) 1 lb/Acre 24 hours before. The method, then: Four different cotton cultivars as indicated in Table 3 were grown in 4-inch pots for two weeks. These cotton plants were either sprayed with DCSA (BASF) at the 1 lb/A rate, or unsprayed (no DCSA application, as control). Experimental plants (treated with DCSA and untreated) were sprayed with Paraquat (Gramoxone®; Syngenta) at 30 gm/ha, 70 gm/ha, and 100 gm/ha rates, 24 hours after the application of DCSA, to simulate oxidative stress. […] The same experiment was repeated at two different growth stages of cotton (2 nodes stage and 5 nodes stage).

In the case of `CNC.O=C(O)COc1ccc(Cl)cc1Cl` [2,4-D], the “POST 2,4-D injury compared to treated non-transgenic control A3525” value in series [1] is recorded as “significantly (ANOVA test) lower”.
With `O=C(O)CNCP(=O)(O)O` [Glyphosate, N-phosphonomethylglycine, reference compound], the “Severity rating (1-9)” value in series [2] (1 healthy, 9 dead, inoculated check 5) is given as 2; in series [3] (1 healthy, 9 dead, inoculated check 9), 3.5. Further, the “Plant survival rating (out of 10)” value in series [2] (inoculated check 8) and in series [3] (inoculated check 0) was 10 throughout.
For `CC(=O)Oc1ccccc1C(=O)O` [ASA, acetyl salicylic acid], in series [4] (100 μM (each)), the Doubling efficiency came out at 0, the “10 inch pot survival” value stood at 62, the “Percent Pollination” value is 86% and the Percent germination is given as 87%. In series [4] (250 μM (each)), the Doubling efficiency is 8, the “10 inch pot survival” value amounted to 60, the “Percent Pollination” value is recorded as 78% and the Percent germination came out at 85%. Besides, in series [4] (500 μM (each)), the Doubling efficiency was 5, the “10 inch pot survival” value was 35, the “Percent Pollination” value is 71% and the Percent germination is 68%.
For `O=C(O)c1ccccc1O` [SA, salicylic acid], in series [4] (100 μM (each)), the Doubling efficiency is 2, the “10 inch pot survival” value came out at 48, the “Percent Pollination” value was found to be 83% and the Percent germination turned out to be 80%. Moreover, in series [4] (250 μM (each)), the Doubling efficiency was 3, the “10 inch pot survival” value is recorded as 58, the “Percent Pollination” value is recorded as 85% and the Percent germination worked out at 85%. Further, in series [4] (500 μM (each)), the Doubling efficiency came out at 3, the “10 inch pot survival” value stood at 77, the “Percent Pollination” value was determined as 89% and the Percent germination is on record as 85%.
In the case of `O=S(=O)([O-])[O-].[Cu+2]` [Cu, copper sulfate], in series [5], the Percent injury is 45% and 45.0a Percent.
Take `C[n+]1ccc(-c2cc[n+](C)cc2)cc1` [Paraquat]: the “% injury” value in series [6] (paraquat 30 g ae/ha at V-3) is 32.5%; in series [6] (paraquat 70 g ae/ha at V-3), 50.8%; in series [6] (paraquat 200 g ae/ha at V-3) it was 75%. Further, in series [6] (transgenic plants contacted with Paraquat alone (Table 2)), the injury rate entry is recorded as “about 75%”. Besides, the “% injury at 5 DAT Paraquat alone control 100 g ae/ha” value turned out to be 75.83% in series [6] (transgenic soybean event 462-1-21) and 77.50% in series [6] (transgenic soybean event 469-13-19). In addition, the Percentage injury worked out at 35% in series [7] (cotton ST3273B2RF, Gramoxone 30 g a.i./ha); 50% in series [7] (cotton ST3273B2RF, Gramoxone 70 g a.i./ha); 50% in series [7] (cotton ST3273B2RF, Gramoxone 100 g a.i./ha); 37.5% in series [7] (cotton ST4575BR, Gramoxone 30 g a.i./ha); 42.5% in series [7] (cotton ST4575BR, Gramoxone 70 g a.i./ha); 65% in series [7] (cotton ST4575BR, Gramoxone 100 g a.i./ha). The Percentage injury in series [7] (cotton ST4646B2RF, Gramoxone 30 g a.i./ha) worked out at 31.5%; in series [7] (cotton ST4646B2RF, Gramoxone 70 g a.i./ha), 42.5%; in series [7] (cotton ST4646B2RF, Gramoxone 100 g a.i./ha) it was 70%; in series [7] (cotton ST6622RF, Gramoxone 30 g a.i./ha), 42.5%; in series [7] (cotton ST6622RF, Gramoxone 70 g a.i./ha), 50%; in series [7] (cotton ST6622RF, Gramoxone 100 g a.i./ha), 70%.
